Measurements as given in US20220008365A1, “Treating Intraocular Retinoblastoma with Inhibitors of Histone Modification” (Vanderbilt University, priority 2018, published 2022).
“Also recorded” adds a separate entry of the source.

Legend:
[1] = system: human retinoblastoma cells; assay: killing of human retinoblastoma cells in cell culture; type: cell-based; details: for killing of human retinoblastoma cells by a brief pulse of HDAC inhibitor: brief pulse exposure, multiple concentrations
Description: (§1) The present inventors have additionally determined the pharmacokinetics of belinostat when injected directly into the vitreous of the rabbit eye and have calculated its intraocular half-life in vivo. […] Specifically, once the PK curve of intravitreally-injected belinostat was determined and the half-life calculated, human retinoblastoma cells were incubated in cell culture in media containing varying concentrations of belinostat for a length of time equivalent to 5 intraocular half-lives, the media was then replaced with belinostat-free media and incubated for 7 days, and the number of surviving cells was then determined. Then, as an example, the present inventors back-calculated the initial intravitreal injection dose that would ensure that a concentration equal to or above the in vitro IC90 would be achieved even out to 5 half-lives, in vivo.

rabbit eye (retina) = assay: retinal histopathology after intravitreal injections; type: in vivo; details: 3 weekly intravitreal injections; belinostat 350 μg or 700 μg; melphalan 25 μg
Description: (§2) For the first small animal IAC model developed by the inventors and referenced above, the rabbit's dominant ophthalmic artery was endovascularly cannulated, and each drug was injected at various doses. For intravitreal experiments, 1-3 weekly injections of each drug were performed. For the assessment of ocular toxicity described above, the testing platform the inventors developed included a broad array of tests including assessment of retinal structure and function by electroretinography, photography, fluorescein angiography, OCT, and OCT-Angiography, both before and after treatment. Human WERI-Rb1 retinoblastoma xenografts were treated with either intravenous, intra-arterial, or intravitreal chemotherapy. Assessment of efficacy against vitreous seeds was by both direct quantification of seed burden (vitreous harvesting and cell counting) and by assessment of apoptosis induction by immunohistochemistry.
The retina looks just as healthy as the saline-treated control eye.

[2] = system: human WERI-Rb1 retinoblastoma xenografts (vitreous seeds); assay: rabbit model of retinoblastoma vitreous seeds, intravitreal treatment, quantification of seed burden; type: in vivo; details: for reduction in tumor cells / tumor burden compared to saline: 3 weekly intravitreal injections (belinostat 350 μg; melphalan 25 μg), eyes harvested two weeks after final injection
Description: as §2
To determine efficacy and toxicity of intravitreal HDAC inhibitors for retinoblastoma treatment, vitreous seeds were generated in cyclosporine-immunosuppressed rabbits. 1,000,000 human WERI-Rb1 human retinoblastoma cells were injected into each eye. The seeds were allowed to grow for two weeks to form the types of “spherules” seen clinically with vitreous seeds. 350 μg belinostat injections were used (equivalent to approximately 700 μg in a human-sized eye). The right eye was injected with belinostat three times, weekly. The left eye was injected with saline three times, weekly. The eyes were harvested for analysis two weeks after the final injection, and subjected to the cell quantification and apoptosis induction assays described in the above paragraph.
To compare the efficacy of an embodiment of the present invention with melphalan treatment, rabbit eyes were treated with 3 weekly injections of 350 μg belinostat by local (intravitreal) injection as described above. The melphalan comparator group received 3 weekly injections of 25 μg melphalan (the clinically-used dose) by intravitreal injection. Eyes were harvested two weeks after the final injection. […]

[3] = system: rabbit eye (retinal function); assay: retinal function by electroretinography after intravitreal injections; type: in vivo
Description: as §2
We next wanted to use the toxicity assessment platform that we have developed previously (described above) to compare the toxicity of belinostat (in accordance with the present invention) to current standard-of-care melphalan. As with the efficacy experiments, rabbits received either 3 injections (weekly) of belinostat 350 μg (the effective dose in our rabbit model), or else belinostat 700 μg (double the clinically-effective dose in our rabbit model), or else melphalan 25 μg (the current, clinically-used dose).

[4] = intra-arterial melphalan, patients; cited from earlier work
[5] = intraocular pharmacokinetics after local administration; type: in vivo, rabbit; details: local administration routes (intravitreal, intra-arterial)
Description: as §1

Structure (SMILES): Cc1[nH]c2ccccc2c1CCNCc1ccc(/C=C/C(=O)NO)cc1 [panobinostat]
- killing of human retinoblastoma cells by a brief pulse of HDAC inhibitor [1]: can be killed by exposure to a brief pulse

Structure (SMILES): N[C@@H](Cc1ccc(N(CCCl)CCCl)cc1)C(=O)O [melphalan]
- retinal architecture on histopathology (rabbit eye (retina)): severe atrophy of the retina; also recorded: evidence of retinal degeneration
- reduction in tumor cells / tumor burden compared to saline [2]: 93%
- retinal toxicity or structural damage ([3]; intravitreal injection, dose not given): retinal structural damage
- reduction in measured retinal function (electroretinography amplitudes) ([3]; intravitreal melphalan 25 μg, 3 weekly injections, across all parameters measured): 66-90%
- rates of complications [4]: ~40%

Structure (SMILES): O=C(/C=C/c1cccc(S(=O)(=O)Nc2ccccc2)c1)NO [belinostat, N hydroxy-3-(3-phenylsulfamoyl-phenyl)-acrylamide]
- killing of human retinoblastoma cells by a brief pulse of HDAC inhibitor [1]: can be killed by exposure to a brief pulse
- killing of human retinoblastoma cells in vitro ([1]; in vitro): effective for killing human retinoblastoma cells in vitro
- retinal architecture on histopathology (rabbit eye (retina)): retained normal retinal architecture and healthy-appearing retina; also recorded: no evidence of retinal degeneration
- intraocular concentrations [5]: very high intraocular concentrations, but of very brief duration
- response of vitreous tumor seeds (photographs, FIG. 1) ([2]; 350 μg belinostat intravitreal, three times weekly, vs saline-treated left eye): eradication of retinoblastoma vitreous seeds
- reduction in tumor cells / tumor burden compared to saline [2]: 95%
- ERG parameters (retinal function) ([3]; intravitreal belinostat 700 μg (double the clinically-effective dose), 3 weekly injections): only mild worsening of ERG parameters
- retinal functional loss and toxicity (A wave and B wave amplitude, FIG. 3) ([3]; rabbit, in vivo): (absence of) retinal functional loss
- retinal toxicity or structural damage ([3]; rabbit, in vivo): no such retinal toxicity or structural damage

Structure (SMILES): Nc1ccccc1NC(=O)c1ccc(CNC(=O)OCc2cccnc2)cc1 [etinostat]
- killing of human retinoblastoma cells by a brief pulse of HDAC inhibitor [1]: can be killed by exposure to a brief pulse
